Here are results for one compound from patent publication US7786297B2, “Purified form of tanaproget” (Wyeth LLC, priority 2005, dated 2010).

The series in a line: storage stability of purified tanaproget Form I (polymorph conversion). Format: physicochemical. Particulars: storage of purified tanaproget Form I alone or in combination with other agents/excipients.

As to `Cn1c(C#N)ccc1-c1ccc2c(c1)C(C)(C)OC(=S)N2` [purified tanaproget Form I, 5-(4,4-dimethyl-2-thioxo-1,4-dihydro-2H-3,1-benzoxazin-6-yl)-1-methyl-1H-pyrrole-2-carbonitrile], the “stability / conversion to another polymorph during storage” value was “stable and less likely to convert to another polymorph during storage”.
